Literature values as cited in patent US8686153B2, “Lenalidomide salts” (Synthon B.V., priority 2009, dated 2014).

In the case of `Nc1cccc2c1CN(C1CCC(=O)NC1=O)C2=O` (racemic) [Lenalidomide, 3-(4-amino-1-oxo-3H-isoindol-2-yl)piperidine-2,6-dione], the “solubility at pH 4.6, 6.8 and 7.4” value is listed as 0.4-0.5 mg/ml.
